The record followed here is patent US20100047841A1, “SYNTHESIS OF DESACETOXYTUBULYSIN H AND ANALOGS THEREOF” (University of Pittsburgh-of the Commonwealth System of …, priority 2007, published 2010).

Counter-ions that a name gives are not always drawn.

In test [1] the test system is bovine brain tubulin (peptide/depsipeptide site). Briefly: Inhibition of [3H]dolastatin 10 binding to tubulin (centrifugal gel filtration). The note with it: 10 μM radiotracer, 10 μM tubulin; for % Inhibition of [3H]dolastatin 10 binding by 5 μM test agent: 30 min room temperature; for IC50: test agent 0.5-100 μM, Hill fit. On the procedure: (§1) The new compounds were tested for their abilities to bind at the vinca domain and at the related peptide/depsipeptide site on tubulin using a modification of a centrifugal gel filtration method described by Bai et al., Mol. Pharmacol. 7: 965-76 (1995). In the initial screens, each 0.32 mL reaction mixture contained 5 μM test agent and 10 μM [^3H]vinblastine (specific activity 8.50 Ci/mmol; GE Healthcare Bio-Sciences, Picataway, N.J.) or 10 μM [^3H]dolastatin 10 (specific activity 1.96 Ci/mmol; obtained from the Drug Synthesis and Chemistry Branch of the National Cancer Institute) predissolved in DMSO (final concentration 1% v/v) and 10 μM bovine brain tubulin, all in 0.1 M 2-(4-morpholino)ethanesulfonic acid (Mes), pH 6.9, containing 0.5 mM MgCl2. The mixture was incubated for 30 min at room temperature. Two 0.15 mL aliquots of the reaction mixture were applied to duplicate 2 mL beds of pre-swollen (in Mes, pH 6.9, containing 0.5 mM MgCl2) Sephadex G-50 (superfine) contained in Handee columns (Pierce Biotechnology, Rockford, Ill.). The columns were centrifuged at 800×g for 4 minutes and the protein concentration in the effluent was determined, using the bicinchoninic acid assay. The amount of radiolabeled ligand bound to tubulin was determined using scintillation spectrometry. Each value represents the mean ±SD of four determinations. […] Inhibition was calculated as the percent difference relative to that of the control incubation with DMSO (i.e., without test agent—assigned as 0% inhibition). […] GraphPad Prism was used to fit the resulting data to the Hill equation to determine the IC50 values.

The next test deals with bovine brain tubulin. Briefly: Inhibition of GTP-induced tubulin assembly (turbidimetry at 350 nm). It counts as biochemical. To be noted: after 20 min at 30° C., 10 μM bovine brain tubulin, 0.8 M monosodium glutamate. On the procedure:
Bovine brain tubulin was isolated to electrophoretic homogeneity from fresh brains via methodology described by Hamel and Lin, Biochemistry 23: 4173-84 (1984). Tubulin (final concentration 10 μM; 1 mg/mL) was preincubated with test agents dissolved in DMSO (4% v/v final concentration) and monosodium glutamate (0.8 M final concentration, pH 6.6) for 15 minutes at 30° C. The reaction mixture was cooled to 0° C., and GTP (0.4 mM final concentration) was added. Reaction mixtures were transferred to cuvettes held at 2.5° C. in a Beckmann DU 7400 multichannel, temperature-controlled (Peltier unit) spectrophotometer, reading absorbance (turbidity) at 350 nm in each cuvette every 15 seconds. Baselines were established and temperature was quickly raised to 30° C. (in approximately 1 minute). After 20 minutes, the temperature was returned to 2.5° C. The turbidity value after 20 minutes at 30° C. for GTP alone was assigned as 100% assembly, and for DMSO alone as 0% assembly. The IC50 was calculated by linear regression of the percent assembly values at the same time point obtained with 0.625, 1.25, 2.5, 5, 10 and 20 μM test agent. In experiments to test for disassembly of preformed tubulin polymer, the test agent was added after 7 minutes of GTP-induced assembly.

Test [2] deals with bovine brain tubulin (vinca domain). As to the kind of experiment: Inhibition of [3H]vinblastine binding to tubulin (centrifugal gel filtration). The note with it: for % Inhibition of [3H]vinblastine binding by 5 μM test agent / IC50: 10 μM radiotracer, 10 μM tubulin; for % Inhibition of [3H]vinblastine binding by 5 μM test agent: 30 min room temperature; for IC50: test agent 0.5-100 μM, Hill fit. Here is the method: as §1

For orientation: IC50 means the midpoint of a concentration-inhibition curve. A lower IC50 goes with inhibition by little substance. For the compound `CCC(C)[C@H](NC(=O)[C@H]1CCCCN1C)C(=O)N(C)[C@H](C[C@@H](OC(C)=O)c1nc(C(=O)N[C@@H](Cc2ccccc2)C[C@H](C)C(=O)O)cs1)C(C)C` (stereo partly drawn) [WZY-III-63C, N^14-Desacetoxytubulysin H trifluoroacetic acid salt], in test [1], the “% Inhibition of [3H]dolastatin 10 binding by 5 μM test agent” value was found to be 31 ± 3% and the IC50 amounted to 10 ± 1 µM. This compound gave an IC50 with bovine brain tubulin of 2.3 µM. Also, in test [2], the “ability to inhibit [3H]vinblastine binding to isolated tubulin (in words)” value is recorded as “equipotent to dolastatin 10”, the “% Inhibition of [3H]vinblastine binding by 5 μM test agent” value (“% Inhibition of [3H]vinblastine binding” below) came out at 50 ± 4% and the IC50 came to 5.6 ± 0.5 µM.

For the compound `CCC(C)[C@H](NC(=O)CN(C)C)C(=O)N(C)[C@H](C[C@H](OC(C)=O)c1nc(C(=O)N[C@@H](Cc2ccccc2)C[C@H](C)C(=O)O)cs1)C(C)C` (stereo partly drawn) [WZY-III-64A, (2S,4R)-4-(2-((6S,9R,11S)-6-sec-Butyl-9-isopropyl-2,8-dimethyl-4,7,13-trioxo-12-oxa-2,5,8-triazatetradecan-11-yl)thiazole-4-carboxamido)-2-methyl-5-phenylpentanoic acid], in test [1], the “% Inhibition of [3H]dolastatin 10 binding by 5 μM test agent” value is listed as −11 ± 10%. The compound also yielded a half-maximal inhibitory concentration (IC50) with bovine brain tubulin of more than 5 µM. In addition, in test [2], the “% Inhibition of [3H]vinblastine binding” value was determined as 2 ± 5% and the IC50 was more than 50 µM.

Turning to `CCC(C)[C@H](NC(=O)CN(C)C)C(=O)N(C)[C@H](C[C@@H](OC(C)=O)c1nc(C(=O)N[C@@H](Cc2ccccc2)C[C@H](C)C(=O)O)cs1)C(C)C` (stereo partly drawn) [WZY-III-69A, (2S,4R)-4-(2-((6S,9R,11R)-6-sec-Butyl-9-iso-propyl-2,8-dimethyl-4,7,13-trioxo-12-oxa-2,5,8-triazatetradecan-11-yl)thiazole-4-carboxamido)-2-methyl-5-phenylpentanoic acid], the “% Inhibition of [3H]dolastatin 10 binding by 5 μM test agent” value in test [1] worked out at 4 ± 3%. Further, the values for the IC50 (in test [1]; with bovine brain tubulin; in test [2]) were 64 ± 9 µM, 3.1 µM and 8.8 ± 1.6 µM, respectively. Moreover, the “% Inhibition of [3H]vinblastine binding” value in test [2] was determined as 43 ± 1%.
